{"source": "patent US12059499B2", "about": "“Liposome loading” (PLUMB PHARMACEUTICALS, INC., priority 2015, dated 2024)", "key": {"[1]": {"conditions": "cited from earlier work"}, "[2]": {"assay": "Liposome leakage, sedimentation method", "assay_type": "physicochemical", "method": "Liposome Leakage, Sedimentation Method. Liposome samples were diluted to 3-5 mL and left on an orbital shaker at 22° C. At specific time points, the liposomes were sedimented in a centrifuge at 300×g for 5 minutes and an aliquot of the clear supernatant was analyzed spectrophotometrically for drug and loading base content. After measurement, the solution was returned to the liposome suspension, which was vortexed and returned to the orbital shaker.\nThen, 400 microliters of a pyridinium salt solution (prewarmed to 58° C.) were added to the lipid suspension. The mixture was kept at 58° C. for 5 minutes and then 100 microliters of the pyridinium salt solution were added. […] A total of three washes were performed. […] The samples were subsequently monitored for release of naltrexone using the sedimentation method. Two trials were performed for each condition."}, "[3]": {"conditions": "partly stated as estimated; cited from earlier work"}, "[4]": {"assay": "Leakage of drug from loaded liposomes, Examples 5 to 8 (method not named)", "conditions": "for leakage of chloroquine from liposomes loaded using this base, compared among three loading bases: adenine triflate, aniline triflate, pyridinium sulfate"}, "[5]": {"conditions": "cited from earlier work", "remark": "listed apart in the source"}, "[6]": {"conditions": "administered orally; cited from earlier work"}, "[7]": {"assay": "Liposome leakage, dialysis method", "conditions": "for pyridine leakage from the liposomes: slower after 3 days", "quoted_text": "A 0.5-mL aliquot of liposome suspension was placed in a section of dialysis tubing tied at one end. The tubing was tied at the other end to form a sealed bag. The bag was placed in 4.5 mL of isotonic NaCl saline solution and placed on an orbital shaker. At specific time points, the dialysis bags were exchanged into fresh isotonic NaCl and the drug and loading base were quantified spectophotometrically in the external dialysis solutions."}, "[8]": {"conditions": "cited from earlier work", "remark": "listed apart in the source"}, "[9]": {"conditions": "1.5 M pyridinium sulfate liposomes"}, "[10]": {"conditions": "liposomes loaded with this pyridinium salt"}}, "note": "Read-outs that look alike come from different tables or passages of the source.", "data": [{"compound": "O=C1CC[C@@]2(O)[C@H]3Cc4ccc(O)c5c4[C@@]2(CCN3CC2CC2)[C@H]1O5", "note": "[naltrexone, reference compound]", "values": [{"measurement": "pKa", "setting": "[1]", "value": 7.3}, {"measurement": "initial release at 24 hours", "setting": "[2]; [9]", "value": "approximately 4%"}, {"measurement": "liposome contents released in 672 hours", "setting": "[2]; [9]", "value": 20, "unit": "%"}, {"measurement": "release rate", "setting": "[2]; 1.5 M pyridinium sulfate liposomes, over 672 hours", "value": "less than 1 % per day"}, {"measurement": "log P", "setting": "[3]", "value": 1.3}]}, {"compound": "Methanesulfonate", "values": [{"measurement": "naltrexone release rate compared with sulfate and eprodisate salts", "setting": "[2]; [10]", "value": "higher release rates"}]}, {"compound": "Nc1ccccc1", "note": "[aniline]", "values": [{"measurement": "leakage of chloroquine from liposomes loaded using this base, compared among three loading bases", "setting": "[4]", "value": "most rapid"}]}, {"compound": "N", "note": "[ammonia, reference compound]", "values": [{"measurement": "log P", "setting": "[3]", "value": "approximately −0.3"}]}, {"compound": "Cl.c1ccncc1", "note": "[Chloride, pyridinium chloride]", "values": [{"measurement": "release of naltrexone in about 300 hours", "setting": "[2]", "value": 20, "unit": "%"}]}, {"compound": "O=[N+]([O-])O", "note": "[Nitrate]", "values": [{"measurement": "release of naltrexone in 500 hours", "setting": "[2]", "value": "over 70%"}, {"measurement": "release of naltrexone in 860 hours", "setting": "[2]", "value": 90, "unit": "%"}]}, {"compound": "NC(=O)c1cccnc1", "note": "[nicotinamide]", "values": [{"measurement": "pKa", "setting": "[1]", "value": 3.25}, {"measurement": "concentration of solutions of the salt with most strong acids (as concentrated as)", "setting": "[5]; pH 2-3 and room temperature", "value": "≤ 4", "unit": "M"}, {"measurement": "oral dose with no toxic effects (as high as)", "setting": "[6]", "value": "≤ 3", "unit": "gm/day"}]}, {"compound": "c1ccncc1", "note": "[pyridine]", "values": [{"measurement": "pyridine leakage from the liposomes", "setting": "[7]; 0.5 M pyridinium sulfate liposomes loaded with 2.5 or 5 μmol chloroquine", "value": "initially very rapid"}, {"measurement": "pyridine loss from liposomes", "setting": "[7]; 0.5 M pyridinium sulfate liposomes loaded with 10 or 20 μmol chloroquine", "value": "minimal"}, {"measurement": "pyridine leakage from the liposomes", "setting": "[7]; 1 M pyridinium chloride liposomes loaded with 2.5 or 5 μmol chloroquine", "value": "initially very rapid"}, {"measurement": "pyridine loss from liposomes", "setting": "[7]; 1 M pyridinium chloride liposomes loaded with 10 or 20 μmol chloroquine", "value": "minimal"}]}, {"compound": "CCN(CC)CCCC(C)Nc1ccnc2cc(Cl)ccc12", "note": "(stereo not drawn) [chloroquine, reference compound]", "values": [{"measurement": "leakage of loaded drug in the first 24 hours", "setting": "[7]; 0.133 M ammonium sulfate gradient liposomes (comparison)", "value": 18, "unit": "%"}, {"measurement": "leakage after 400 hours", "setting": "[4]; DPPC:cholesterol liposomes loaded with a sulfate salt of pyridine", "value": "4-8%"}, {"measurement": "leakage after 400 hours", "setting": "[4]; loaded with the eprodisate salts of both pyridine and 2-methoxypyridine", "value": "≤ 1", "unit": "%"}]}, {"compound": "c1ccnnc1", "note": "[pyridazine]", "values": [{"measurement": "log P", "setting": "[3]", "value": "approximately −0.7"}, {"measurement": "solubility in water", "setting": "[5]", "value": "miscible with water at all ratios"}]}, {"compound": "COc1ccccn1", "note": "[2-methoxypyridine]", "values": [{"measurement": "log P", "setting": "[3]", "value": "approximately 1.3"}, {"measurement": "solubility in water", "setting": "[5]", "value": "limited solubility in water"}]}, {"compound": "Nc1ncnc2nc[nH]c12", "note": "[adenine, 6-aminopurine]", "values": [{"measurement": "pKa", "setting": "[1]", "value": 4.15}, {"measurement": "leakage of chloroquine from liposomes loaded using this base, compared among three loading bases", "setting": "[4]", "value": "least rapid"}, {"measurement": "solubility in water", "setting": "[5]", "value": "very limited solubility in water"}]}, {"compound": "CCC(C)O", "note": "(stereo not drawn) [Example 2-butanol, 2-butanol]", "values": [{"measurement": "log P", "setting": "[3]", "value": 0.683}]}, {"compound": "C1=Cc2cccc(OC[C@H]3CNCCO3)c2C1.O=S(=O)(O)c1ccccc1", "note": "[Benzenesulfonate]", "values": [{"measurement": "naltrexone release rate compared with sulfate and eprodisate salts", "setting": "[2]", "value": "higher release rates"}]}, {"compound": "O=S(=O)(O)CCCS(=O)(=O)O.c1ccncc1.c1ccncc1", "note": "[pyridinium eprodisate]", "values": [{"measurement": "release of naltrexone in 900 hours", "setting": "[2]; [10]", "value": "~5", "unit": "%"}]}, {"compound": "CN1CC[C@]23c4c5ccc(O)c4O[C@H]2C(=O)CC[C@@]3(O)[C@H]1C5", "note": "[oxymorphone]", "values": [{"measurement": "release time", "setting": "[8]; animal studies, egg phosphatidylcholine and cholesterol vesicles", "value": "approximately 24 hours"}, {"measurement": "release time", "setting": "[8]; dipalmitoylphosphatidylcholine and cholesterol vesicles", "value": "approximately 72 hours"}]}]}
